Measurements: publication PMC5930436, “Overexpressed HDAC8 in cervical cancer cells shows functional redundancy of tubulin deacetylation with HDAC6” (Cell Communication and Signaling : CCS, 2018)
Entries after “also recorded” stand apart in the source; their conditions may differ. One block for each molecule: values may come before it.

Assays:
[1] = system: acetylated alpha tubulin, HeLa; assay: Immunoblot of acetylated alpha tubulin in HeLa cells; type: cell-based, human; conditions: 24 h
Description: (§1) Human embryonic kidney cells, HEK293T, human cervical carcinoma cells, HeLa, human breast cancer cells, MDA-MB 231, human lung adenocarcinoma cellsA549, chronic myeloid leukemia cells, K562, and human colon cancer cells, HCT11, were obtained from National Centre for Cell Sciences (NCCS), Pune, India. Cell line authentication by STR analysis was performed for 10 genetic loci for all the cell lines by Life code, Genomic technologies Pvt. Ltd., and tested for mycoplasma negative by performing PCR (mycoplasma specific genes) using EZdetect PCR kit for mycoplasma detection (CCK009). All the cells were cultured in high glucose DMEM medium containing 10% foetal bovine serum and 1% Penicillin/streptomycin (Himedia). Cells were seeded in 60 mm dishes and upon attaining 80–90% confluency, treatment was given with PCI-34051(Cayman Chemicals) (10 μM/20 μM) and tubastatin (5 μM) for 24 h or both in combination (PCI-34051 and Tubastatin) and Forskolin (Sigma) (10 μM) for 45 min independently along with untreated control as described earlier.
(§2) Total, cytoplasmic and nuclear fractions of HeLa or HEK 293 T cells treated with or without PCI-34051 (20 μM), [12] tubastatin (5 μM) and/or forskolin (10 μM) were prepared as described previously. Total protein samples of HEK 293 T, HeLa, MDAMB 231, K562, A549 and HCT11 cells / immunoprecipitated HDAC8 and HDAC6 samples from both HeLa and HEK 293 T lysates / HDAC8 siRNA transfected HEK 293 T and HeLa lysates were also prepared. The proteins were separated on 10 or 12% SDS-PAGE, transferred on to nitrocellulose membrane and probed with primary antibodies of HDAC8, Beta actin, Alpha tubulin, anti-acetylated alpha tubulin, HDAC6 and GAPDH. The bands were visualized using chemiluminiscence after probing with HRP-conjugated secondary antibody.
(§3) Source for siRNA oligonucleotides were considered from with sequence, HDAC8 Sense: […] and Anti-sense: […]. The oligonucleotides were converted into siRNA by following standard protocol as described earlier. HeLa and HEK 293 T cells were transfected with HDAC8 siRNA (10–15 μg/100 mm dish) using lipofectamine 2000 (Invitrogen), and considering untransfected as control. Cells were harvested after 72 h of post-transfection and processed for total RNA and protein isolation.

[2] = system: acetylated alpha tubulin, HEK 293 T; assay: Immunoblot of acetylated alpha tubulin in HEK 293 T cells; type: cell-based, human; conditions: 24 h; for acetylated alpha tubulin levels: HEK 293 T
Description: as §1, §2, §3

HeLa cells [3] = assay: Cell migration (wound) assay in HeLa cells; type: cell-based, human
Description: HeLa cells are grown in 6 well plates in duplicates till it attains 90% confluency and starved with serum free media for overnight. Using a sterile 200 μl tip wound is created by drawing straight lines at three different points in each well. Detached cells are aspirated and washed three times with 1XPBS. Cells are treated with PCI-34051 (10 μM & 20 μM) and Paclitaxel (10 μM & 20 μM) dissolved in 2% FBS respectively along with control (untreated). Migrated cells into the wound were examined by capturing images using Olympus CKX41, ProgRes CT3 phase contrast microscope after 24 and 48 h.

HeLa cells [4] = assay: Cell morphology analysis, HeLa; type: cell-based, human; conditions: 20 μM
Description: (§4) HeLa and HEK 293 T cells are cultured in 6 well plates till attaining 70% confluency. Cells are starved for 12 h without serum and treated with PCI-34051 (20 μM) and Paclitaxel (20 μM) along with untreated control for 24 & 48 h. Examined difference in the morphology was captured by Olympus CKX41, ProgRes CT3 phase contrast microscope at 10X focussed lens.

HEK 293 T cells [5] = assay: Cell morphology analysis, HEK 293 T; type: cell-based, human; conditions: 20 μM, 24 & 48 h, vs control
Description: as §4

HeLa cells [6] = assay: Cell cycle analysis, HeLa; type: cell-based, human; conditions: PCI-34051 (20 μM), 48 h, vs untreated control
Description: (§5) Cells (HeLa & HEK 293 T) were grown to attain 70% confluency and were serum starved for 12 h, followed by treatments with PCI-34051 (20 μM) and Paclitaxel (20 μM) respectively for 48 h and processed for cell cycle analysis.

HEK 293 T cells [7] = assay: Cell cycle analysis, HEK 293 T; type: cell-based, human; conditions: PCI-34051 (20 μM), 48 h
Description: as §5

HDAC8 = conditions: cited from earlier work
Excerpt: The cytoplasmic localization of HDAC8 was further confirmed by immunoblot analysis using total, cytoplasmic and nuclear protein fractions of HEK 293 T and HeLa (Fig. 1d). […] With forskolin treatment, there was significant inc ... || In silico and spectroscopy based results have confirmed the interaction of HDAC8 with alpha tubulin & acetylated alpha tubulin peptide. To further validate the functional interaction we carried out IP and co-IP experiments with HDAC8 and acetylated alpha tubulin (ac-tubulin) antibodies. […] Densitometry results for the fold expression ...

GST-HDAC8 [8] = assay: Circular dichroism binding study with GST-HDAC8; parameters: species or system human; conditions: GST-HDAC8 (2 μM) + peptide (500 nM), 25 °C, 190-300 nm
Description: (§6) hHDAC8 (Full length) cDNA was amplified by using a polymerase chain reaction (PCR) with forward primer: 5′– […]-3′ and a reverse primer: 5’–[…]–3′. The PCR product was then sub cloned into pGEX- 6P1 plasmid. Clone was then overexpressed in Escherichia coli strain BL21 (DE3) with standardized expression conditions of 0.1 mM IPTG at 28 °C for 4 h. Induced culture pellet was lysed in 1XPBS buffer (140 mM NaCl, 2.7 mM KCl, 10 mM Na2HPO4, 1.8 mM KH2PO4) along with 1X Protease inhibitor cocktail, 1 mM PMSF, and 0.1 mM DTT. To the lysate 1% Triton X 100 is added and centrifuged for 20 min at a speed of 4000 rpm at 4 °C. Clear supernatant was used for binding with GST binding buffer (25 mM Tris pH 7.5, 300 mM NaCl, 1 mM EDTA, 1X Protease inhibitor cocktail) for 3 h on a rota spin at 4 °C. Binding was followed by collection of unbound and washes with 1X PBS (5 washes). Elutions were collected in 10 mM reduced glutathione, dissolved in 50 mM Tris pH 8.0. The purity of the protein was then analysed on SDS PAGE, followed by Western blot. Activity was then determined by HDAC activity assay.
Binding studies of GST-HDAC8 protein (2 μM) and acetylated (Lys40) or unacetylated alpha tubulin peptides (500 nM) were carried out on Jasco J-1500 (model L-1500-450) CD spectroscopy. Changes incurred in the secondary structure of GST-HDAC8 upon binding of the peptides were recorded as the mean ellipticity, with given set of parameters: start wavelength of 300 nm, end wavelength of 190 nm, scan speed of 100 nm/min, band width of 2 nm, cuvette cell size of 2 mm and at a temperature of 25 °C with two scan accumulations.

GST-HDAC8 [9] = assay: HPLC-based in vitro deacetylation assay with GST-HDAC8; type: biochemical, human; conditions: GST-HDAC8 (2 μM; 30 μg) + peptide (500 nM), 15 min, 37 °C, 50 mM Tris pH 7.5, 1 mM DTT, HPLC C18
Description: as §6
In vitro deacetylation assay of custom synthesized acetylated (Lys40) alpha tubulin was carried out on HPLC (Schimadzu) with C18 (4.6 × 250 mm) column as described earlier. […]

Molecule: COc1ccc(Cn2ccc3ccc(C(=O)NO)cc32)cc1 [PCI-34051]
acetylated alpha tubulin levels, compared to tubastatin treated condition ([1]; PCI-34051 (20 μM) vs tubastatin): Increased ac-alpha tubulin levels | acetylated alpha tubulin levels ([1]; PCI-34051 (20 μM)): ac-alpha tubulin levels increase; also recorded: increased acetylated alpha tubulin levels; also recorded: increased the acetylation of alpha tubulin in HeLa | acetylated alpha tubulin levels ([2]; PCI-34051 (20 μM)): no significant increase | migration efficiency (HeLa cells [3]; PCI-34051 (10 μM & 20 μM), upto 48 h): significantly decreased | migration efficiency (rank order) (HeLa cells [3]; PCI-34051 (10 μM) or Paclitaxel (10 μM), 24 and 48 h): Control> > Paclitaxel>PCI-34051 | cell size during migration assay (HeLa cells [3]; PCI-34051, upto 48 h): notable decrease in cell size | cell morphology effect compared with positive control (HeLa cells [4]; HeLa (shrinkage) and HEK 293 T (clump formation)): quite comparable to that of paclitaxel treated condition | cell morphology (cell size) (HeLa cells [4]; HeLa, 24 & 48 h, vs control): reduced (shrinking) cell size; also recorded: decreased cell size (shrinking) | cell morphology (aggregation / clump formation) (HEK 293 T cells [5]): clump formation; also recorded: cell aggregation | mitotic phase of cell cycle (HeLa cells [6]): significant (p < 0.05) reduction in mitotic phase | sub G0/G1 peak (HeLa cells [6]): increased sub G0/G1 peak | mitotic phase of cell cycle (HEK 293 T cells [7]): did not show any mitotic phase reduction; also recorded: no major significant change in the mitotic phase | sub G0/G1 phase (HEK 293 T cells [7]): significant increase in the sub G0/G1 phase | HDAC8 selectivity (HDAC8): HDAC8 selective inhibitor

Molecule: DGQMPSDKTIGGGD [ac-alpha tubulin peptide, Custom synthesized peptides of alpha tubulin 33–46 amino acids, Acetylated alpha tubulin peptide, at Lys40 …]
change in secondary structure of GST-HDAC8 (CD) (GST-HDAC8 [8]): significant change in the secondary structure of GST-HDAC8 | change in secondary structure of GST-HDAC8 (CD) (GST-HDAC8 [8]; listed as acetylated alpha tubulin): change in the secondary structure of GST-HDAC8; also recorded: significant change in the secondary structure | in vitro deacetylation by GST-HDAC8 (shift to retention time of unacetylated peptide) (GST-HDAC8 [9]): clearly demonstrates the in vitro deacetylation of ac-alpha tubulin by GST-HDAC8 | in vitro deacetylation by GST-HDAC8 (shift to retention time of unacetylated peptide) (GST-HDAC8 [9]; listed as acetylated alpha tubulin (Lys40) peptide): significant peak shift in the retention time corresponding to unacetylated peptide

change in secondary structure of GST-HDAC8 (CD) (GST-HDAC8 [8]; listed as unacetylated form): without any notable differences | change in secondary structure of GST-HDAC8 (CD) (GST-HDAC8 [8]; listed as unacetylated tubulin): not observed
Molecule: DGQMPSDKTIGGGD [Unac-alpha tubulin peptide, Custom synthesized, Unacetylated Alpha tubulin peptide …]

Molecule: CN1CCc2c(c3ccccc3n2Cc2ccc(C(=O)NO)cc2)C1 [Tubastatin]
acetylated alpha tubulin levels, compared to PCI-34051 (20 μM) treated condition ([2]; HEK 293T, tubastatin (5 μM) vs PCI-34051 (20 μM)): increases ac-alpha tubulin levels | acetylated alpha tubulin levels ([2]; tubastatin (5 μM), HDAC6 inhibition): increase in ac-alpha tubulin levels
